In patent publication US10156556B2, “Method for determining ecological risks of polycyclic aromatic hydrocarbon in water body” (priority 2013, dated 2018):

What was measured:
[1] = relative to benzoapyrene; Nisbet and Lagoy 1992; cited from earlier work
Barbel fish = details: chronic toxicity data, PAN Pesticide Database and EPA EcoTox Database; cited from earlier work
Daphnia magna = details: chronic toxicity data, PAN Pesticide Database and EPA EcoTox Database; cited from earlier work
Green algae = details: chronic toxicity data, PAN Pesticide Database and EPA EcoTox Database; cited from earlier work
[2] = system: 95% of species in the protected water ecological system; test: Calculation of HC5 from log-transformed NOEC data; details: HC5=exp(Xm-KLSm), six species, KL 1.81
Source text: (3) calculating benzoapyrene concentration values HC5 of 95% of species in the protected water ecological system: i.e., performing logarithmic transformation on the toxicity data and applying a formula HC5=exp(Xm−KLSm)′ to calculate, wherein m is the number of species, Xm means the arithmetic mean value of the toxicity data of the m species after the logarithmic transformation; Sm means the standard deviation of the toxicity data of the m species after the logarithmic transformation; and KL is a regulation factor, obtained from literature;
(3) Calculating the benzoapyrene concentration values HC5 of 95% of species in the protected water ecological system: logarithmic transformation is performed on the toxicity data in Table 1 to obtain that the arithmetic mean value Xm 3.77 ug/L and the standard deviation Sm 4.95 ug/L, and calculation is conducted using a formula HC5=exp(Xm−KLSm)i, wherein the regulation factor KL is 1.81 (from published literature: Aldenberg and Slob, Confidence limits for hazardous concentrations based on logistically distributed NOEC toxicity data, 1991), and the HC5 value is obtained as 0.0056 ug/L.

Frog = details: chronic toxicity data, PAN Pesticide Database and EPA EcoTox Database; cited from earlier work
Chironomidae = details: chronic toxicity data, PAN Pesticide Database and EPA EcoTox Database; cited from earlier work
Mussel = details: chronic toxicity data, PAN Pesticide Database and EPA EcoTox Database; cited from earlier work
[3] = system: water ecological system of the lake; test: Ecological risk quotient, Monte Carlo sampling (10,000 times); details: single pollutant, water body of the lake
Source text: (5) calculating ecological risk quotient values RQi of specific polycyclic aromatic hydrocarbon pollutants: calculating according to a formula
[formula] wherein ECi is the environmental concentration of an i^th polycyclic aromatic hydrocarbon pollutant, TEFi is a toxic equivalency factor of the i^th polycyclic aromatic hydrocarbon pollutant relative to the benzoapyrene, and a concrete numerical value is from literature, and HC5 is the benzoapyrene concentration values of 95% of species in the protected water ecological system; conducting random sampling for 10,000 times using a Monte Carlo sampling method according to the concentration distribution characteristics of different polycyclic aromatic hydrocarbons; and drawing cumulative probability distribution curves of the ecological risk quotient values of each polycyclic aromatic hydrocarbon pollutant according to the Monte Carlo sampling result, and analyzing the probability that the risk quotient values thereof RQi are no less than one; and
(6) calculating the total ecological risk quotient value RQt of each polycyclic aromatic hydrocarbon pollutant: calculating according to a formula […]

Compound | Toxic equivalency factor [1] | also measured
c1cc2c3c(cccc3c1)CC2 [Ace] | 0.001 | –
C1=Cc2cccc3cccc1c23 [Acy] | 0.001 | –
c1ccc2cc3ccccc3cc2c1 [Ant, anthracene] | 0.01 | –
c1ccc2c(c1)cc1ccc3cccc4ccc2c1c34 [B[a]P, benzoapyrene] | 1 | NOEC (Barbel fish): 54.2 µg/L; NOEC (Daphnia magna): 0.02 µg/L; NOEC (Green algae): 250000 µg/L; HC5 (concentration value of 95% of species in the protected water ecological system) [2]: 0.0056 ug/L; NOEC (Frog): 10 µg/L; NOEC (Chironomidae): 5 µg/L; NOEC (Mussel): 500 µg/L; probability of the risk quotient value RQi greater than or equal to one [3]: 54.4%
c1ccc2c(c1)-c1cccc3c1c-2cc1ccccc13 [B[b]F] | 0.1 | –
c1cc2ccc3ccc4ccc5cccc6c(c1)c2c3c4c56 [B[ghi]P] | 0.01 | –
c1ccc2cc3c(cc2c1)-c1cccc2cccc-3c12 [B[k]F] | 0.1 | –
c1ccc2c(c1)ccc1c3ccccc3ccc21 [Chr] | 0.01 | –
c1ccc2c(c1)ccc1cc3c(ccc4ccccc43)cc12 [DBA] | 1 | probability of the risk quotient value RQi greater than or equal to one [3]: 61.8%
c1ccc2c(c1)-c1ccc3ccc4cccc5cc-2c1c3c45 [Ind] | 0.1 | –
c1ccc2ccccc2c1 [Nap] | 0.001 | –
